Patent US9114133B2, “Method of improving diastolic dysfunction” (U.S. DEPT. OF VETERANS AFFAIRS, priority 2006, dated 2015)
Marks after values point to notes of the source that are not given here.

What was measured:
[1] = system: isolated single myocytes; assay: Residual sarcomere length of isolated myocytes with BDM; assay type: cell-based, mouse; settings: BDM 10 mM
Protocol: 2,3-Butanedione monoxime (BDM), a cross-bridge inhibitor, was used to measure residual sarcomere length. BDM inhibits the Ca^2+ regulated attachment of the cross-bridges and force-generation of the attached cross-bridges (Reference 16). Isolated single myocytes were loaded on an chamber and perfused with BDM (10 mM) in Tyrode's solution at 37° C. Sarcomere length was again measured while the myocytes were field-stimulated as described above.

[2] = system: isolated ventricular myocytes; assay: Isolated myocyte contraction and relaxation parameters (IonOptix); assay type: cell-based, mouse; settings: 1.0 Hz, 10 V, external Ca2+ 1.2 mmol/L
[3] = system: DOCA-salt mouse model (diastolic dysfunction) and sham mice; assay: Transthoracic echocardiography, in vivo BH4 treatment in DOCA-salt mice; settings: BH4 diet 5 mg BH4/day day 11-18, mean ± SEM
Protocol: Previously, I have shown that the DOCA-salt mouse model leads to mild hypertension, NOS uncoupling, myocardial oxidative stress, and diastolic dysfunction (Reference 10). A gradual and mild elevation in blood pressure was induced by unilateral nephrectomy, subcutaneous implantation of a controlled release deoxycorticosterone acetate (DOCA) pellet (0.7 mg/d; Innovative Research of America, Sarasota, Fla.), and substituting drinking water with 1.05% saline. Control animals underwent a sham operation, had placebo pellet implantation, and received water without salt.
Mice were divided into two groups which received a control diet (sham N=7; DOCA-salt N=10) and two groups which received a BH4 supplemental diet of 5 mg BH4/day (Research Diets Inc, New Brunswick, N.J.; sham+BH4 N=8; DOCA-salt+BH4 N=8). The supplemental diet began on day 11 after surgery, and continued until day 18, when the mice were analyzed and sacrificed.
Mitral pulse wave Doppler flow and tissue Doppler imaging (TDI) were performed using the Vevo 770 high-resolution in vivo imaging system (Visual Sonics, Toronto, Canada) (Reference 10). Mice were anesthetized with 1-1.5% isoflurane until a heart rate of around 350-390 beats/min was achieved because measures of diastolic function are sensitive to heart rate and loading conditions. M-mode images in the parasternal long axis and the left ventricle (LV) short-axis views at the mid-papillary level were taken. Measurements were averaged from five consecutive beats during expiration. The images for each mouse were recorded for at least 5 s (30-40 cardiac cycles) from which three to five representative cycles with the highest quality imaging were selected. Percent fractional shortening (% FS) was calculated as 100×(LVEDd)−(LVESd)/(LVEDd) and percent LV ejection fraction (% EF) was calculated as 100×[(7/2.4+LVEDd)×LEDd^3]−[(7/2.4+LVESd)×LVESd^3]/[(7/2.4+LVEDd)×LEDd^3]. Doppler measurements were made at the tips of the mitral leaflets for diastolic filling profiles in the apical four-chamber view. Mitral inflow velocities, peak early (E) and late (A) were measured by conventional pulsed-wave Doppler. TDI was used to determine the mitral annulus longitudinal velocities (Sm, E′, and A′) (Reference 10). Baseline images before treatment were acquired to confirm diastolic dysfunction in DOCA-salt mice. Subsequently, the mice were fed with BH4, followed by echocardiography at day 18.

[4] = system: MnSOD deficient cardiomyocytes; assay: Contraction and relaxation of cardiomyocytes from heterozygous MnSOD knockout mice (IonOptix); assay type: cell-based, mouse; settings: BH4 treatment
Protocol: Echocardiography was used to determine DD in heterozygous MnSOD knockout mice. The mitral annulus longitudinal velocities (E′, and A′) were determined by pulsed-wave tissue Doppler from the apical four-chamber view. Mitochondrial ROS were measured by confocal microscopy and flow cytometry from isolated cardiomyocytes using MitoSOX Red. NO was measured by DAF-FM and by the Griess reaction. Contraction and relaxation impairment were assessed by lonOptix System.

[5] = myocytes from DOCA-salt + BH4 mice

## CC(=O)C(C)=NO [BDM, 2,3-Butanedione monoxime]
[1]; myocytes after BH4 treatment
  Residual sarcomere length: no effect
[1]; myocytes of sham and DOCA-salt groups
  Residual sarcomere length: increased

## C[C@H](O)[C@H](O)[C@H]1CNc2nc(N)[nH]c(=O)c2N1 [BH4, tetrahydrobiopterin]
[2]; [5]
  Diastolic SL: 1.77±0.01 μm
  Relengthening velocity: 2.39 ± 0.18 μm/s
  Sarcomere shortening: 9.48 ± 0.49%
  Shortening velocity: −2.42 ± 0.14 μm/s
  Systolic SL: 1.60 ± 0.01 μm
  Time to 50% relengthening: 240.3 ± 7.5 ms
  Time to 50% shortening: 47.5 ± 0.7 ms
  Time to 90% relengthening: 300.0 ± 13.4 ms
  Time to 90% shortening: 93.5 ± 1.8 ms
  Time to peak shortening: 146.2 ± 0.3 ms
[2]; myocytes from sham + BH4 mice
  Diastolic SL: 1.80 ± 0.01#†& μm
  Relaxation constant, τ: 0.07 ± 0.00&
  Relengthening velocity: 2.75 ± 0.18#†& μm/s
  Sarcomere shortening: 10.64 ± 0.61& %
  Shortening velocity: −2.90 ± 0.16#†& μm/s
  Systolic SL: 1.61 ± 0.01& μm
  Time to 50% relengthening: 204.7 ± 6.0&# ms
  Time to 50% shortening: 45.6 ± 0.8 ms
  Time to 90% relengthening: 258.7 ± 11.7&# ms
  Time to 90% shortening: 87.3 ± 1.8&# ms
  Time to peak shortening: 133.6 ± 0.3& ms
[3]; DOCA-salt mice
  A′ (tissue Doppler): 15.2 ± 1.0 mm/s
  EF (ejection fraction): 54.5 ± 5.0%
  E′ (tissue Doppler): 16.8 ± 1.3†^ mm/s
  FS (fractional shortening): 26.6 ± 2.9%
  LVEDD: 3.67 ± 0.14 mm
  LVESD: 2.65 ± 0.21 mm
  MV A: 367.8 ± 48.3 mm/s
  MV E: 555.0 ± 35.1†^ mm/s
  MV E/A ratio: 1.71 ± 0.33
  Sm: 15.8 ± 1.5
[3]; sham mice
  A′ (tissue Doppler): 21.1 ± 1.9 mm/s
  E/E′ ratio: 34.91 ± 6.81&
  EF (ejection fraction): 51.1 ± 2.8%
  E′ (tissue Doppler): 24.4 ± 2.2†& mm/s
  E′/A′ ratio: 1.17 ± 0.06&
  FS (fractional shortening): 24.7 ± 1.6%
  LVEDD: 4.05 ± 0.10 mm
  LVESD: 3.01 ± 0.11 mm
  MV A: 357.5 ± 31.7 mm/s
  MV E: 738.1 ± 31.1†& mm/s
  MV E/A ratio: 2.28 ± 0.33
  Sm: 22.9 ± 1.5
[4]
  Relaxation constant (tau): 0.73±0.01
  Resting sarcomere length: 1.77±0.01 μm
